Measured values published in patent publication US9353082B2, “Pharmaceutical compounds” (BIAL—PORTELA & CA, S.A., priority 2008, dated 2016).

How the values were obtained:
FAAH [1] = target: T1, FAAH (Rattus norvegicus, UniProt P97612); experiment: In vitro FAAH activity in rat brain membranes, 3H-AEA substrate, % of control; assay type: biochemical, Wistar rats; settings: low value = strong inhibitor; for In Vitro FAAH activity, 100 nM: 100 nM test compound; for In Vitro FAAH activity, 10 uM: 10 uM test compound; for In Vitro 100 nM (FAAH activity, % of control): rat brain membranes, compound at 100 nM
T1 construct: Frozen brains (without cerebellum) from Wistar rats were used; from tissue; host or cells: Wistar rat brain (without cerebellum), washed membrane pellets
T1 sequence (P97612 1-579): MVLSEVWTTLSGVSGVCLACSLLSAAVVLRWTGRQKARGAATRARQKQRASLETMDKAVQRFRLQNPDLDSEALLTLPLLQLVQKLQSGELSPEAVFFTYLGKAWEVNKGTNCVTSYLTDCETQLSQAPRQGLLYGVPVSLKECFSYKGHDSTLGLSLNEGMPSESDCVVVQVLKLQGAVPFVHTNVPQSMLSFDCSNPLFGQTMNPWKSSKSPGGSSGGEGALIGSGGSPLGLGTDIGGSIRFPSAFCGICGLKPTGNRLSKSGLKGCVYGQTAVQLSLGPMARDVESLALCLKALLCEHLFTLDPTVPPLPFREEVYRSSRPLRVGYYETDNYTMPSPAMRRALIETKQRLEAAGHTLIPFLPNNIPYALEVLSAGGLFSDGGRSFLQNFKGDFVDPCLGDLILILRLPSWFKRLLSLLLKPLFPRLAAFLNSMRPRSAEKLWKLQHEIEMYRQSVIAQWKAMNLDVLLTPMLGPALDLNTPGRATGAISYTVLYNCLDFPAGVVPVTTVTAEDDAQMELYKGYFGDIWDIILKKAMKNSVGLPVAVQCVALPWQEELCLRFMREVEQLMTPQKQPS
In short: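 FAAH activity measured as 3H-ethanolamine released from 2 μM [3H]AEA over 10 min by rat brain membrane preparation, after 15 min 37 °C preincubation with test compound at 10 or 0.1 μM. Charcoal-separated supernatant scintillation-counted; values expressed as % of control minus no-protein blank.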

FAAH [2] = target: T2, FAAH (Mus musculus, UniProt O08914); experiment: In vivo FAAH inhibition after oral dosing, remaining activity in brain homogenate (BRh, central nervous tissue); set-up: species or system NMRI mice; settings: brain homogenate, 3 mg/kg; for In Vivo BRh 3 mg·kg 8 h (remaining FAAH activity, % of control): 8 h after dosing, low value = strong inhibitor
T2 construct: A fragment of liver, left lung lobe and brain without cerebellum were removed; from tissue; host or cells: male NMRI mice; brain (without cerebellum) and liver homogenates
T2 sequence (O08914 1-579): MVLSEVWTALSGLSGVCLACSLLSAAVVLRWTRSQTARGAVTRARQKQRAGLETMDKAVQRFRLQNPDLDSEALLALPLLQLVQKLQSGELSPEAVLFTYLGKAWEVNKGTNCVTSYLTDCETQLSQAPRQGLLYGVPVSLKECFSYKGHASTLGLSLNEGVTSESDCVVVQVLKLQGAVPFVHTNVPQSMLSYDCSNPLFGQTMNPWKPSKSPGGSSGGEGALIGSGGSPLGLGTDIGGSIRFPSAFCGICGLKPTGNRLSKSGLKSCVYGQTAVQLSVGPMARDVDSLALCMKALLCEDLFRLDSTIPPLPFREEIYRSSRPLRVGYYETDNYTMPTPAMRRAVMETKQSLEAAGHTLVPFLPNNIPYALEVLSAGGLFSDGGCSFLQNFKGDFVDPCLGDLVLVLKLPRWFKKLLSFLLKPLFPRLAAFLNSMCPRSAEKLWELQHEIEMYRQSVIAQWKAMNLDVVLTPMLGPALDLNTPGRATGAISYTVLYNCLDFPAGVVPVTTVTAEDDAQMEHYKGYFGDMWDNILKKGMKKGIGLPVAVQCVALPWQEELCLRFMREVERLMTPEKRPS
In short: (§1)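 Remaining FAAH activity is given as % of vehicle-treated controls after blank subtraction, measured by radiolabelled AEA hydrolysis (2 μM AEA, 5 nM 3H-AEA, 37 °C) in brain (10 min) or liver (7 min) homogenates. These came from fasted male NMRI mice dosed orally at 30 or 3 mg/kg.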

FAAH [3] = target: T2, FAAH; experiment: In vivo FAAH inhibition after oral dosing, remaining activity in liver homogenate (LVh, peripheral tissue); set-up: species or system NMRI mice; settings: liver homogenate, 3 mg/kg; for In Vivo LVh 3 mg·kg 8 h (remaining FAAH activity, % of control): 8 h after dosing, low value = strong inhibitor
In short: as §1

| SMILES | In Vitro FAAH activity, 100 nM (FAAH [1]) | In Vivo BRh 3 mg/kg 8 h, remaining FAAH activity (FAAH [2]) | In Vivo LVh 3 mg/kg 8 h, remaining FAAH activity (FAAH [3]) | In Vitro FAAH activity, 10 uM (FAAH [1]) | In Vitro 100 nM (FAAH activity, % of control) (FAAH [1]) | In Vivo BRh 3 mg·kg 8 h (remaining FAAH activity, % of control) (FAAH [2]) | In Vivo LVh 3 mg·kg 8 h (remaining FAAH activity, % of control) (FAAH [3]) |
| --- | --- | --- | --- | --- | --- | --- | --- |
| CN(C(=O)n1cnc(-c2cccc(-c3cccc(O)c3)c2)c1)C1CCCCC1 [Compound 247, N-cyclohexyl-4-(3′-hydroxybiphenyl-3-yl)-N-methyl-1H-imidazole-1-carboxamide] | 0.5 % of control | 131.7 % of control | 85.5 % of control |  |  |  |  |
| CN(C(=O)n1cnc(-c2cccc(-c3cccc(OC(F)(F)F)c3)c2)c1)C1CCCCC1 [Compound 248, N-cyclohexyl-N-methyl-4-(3′-(trifluoromethoxy)biphenyl-3-yl)-1H-imidazole-1-carboxamide] | 68.9 % of control | 104.2 % of control | 57 % of control |  |  |  |  |
| Cc1c(-c2ccccc2)ncn1C(=O)N(C)C1CCCCC1 [Compound 254, N-cyclohexyl-N,5-dimethyl-4-phenyl-1H-imidazole-1-carboxamide] | 81 % of control | 98.3 % of control | 89.9 % of control | 109 % of control |  |  |  |
| Cc1c(-c2ccccc2)ncn1C(=O)N(C)Cc1ccccc1 [Compound 264, N-benzyl-N,5-dimethyl-4-phenyl-1H-imidazole-1-carboxamide] | 88 % of control | 115 % of control | 76.6 % of control |  |  |  |  |
| Cc1nc(-c2ccccc2)cn1C(=O)N(C)C1CCCCC1 [Compound 279, N-cyclohexyl-N,2-dimethyl-4-phenyl-1H-imidazole-1-carboxamide] |  |  |  |  | 87.3 % of control | 91.6 % of control | 94.1 % of control |
| CN(C(=O)n1cnc(-c2ccccc2)c1)C1CCN(Cc2ccccc2)CC1 [Compound 282, N-(1-benzylpiperidin-4-yl)-N-methyl-4-phenyl-1H-imidazole-1-carboxamide] |  |  |  |  | 40.9 % of control | 0.5 % of control | 1.6 % of control |
| Cc1nc(-c2ccccc2)nn1C(=O)N(C)C1CCCCC1 [Compound 284, N-cyclohexyl-N,5-dimethyl-3-phenyl-1H-1,2,4-triazole-1-carboxamide] |  |  |  |  | 146.2 % of control | 130.7 % of control | 145.6 % of control |
| Cc1nc(-c2ccccc2)nn1C(=O)N1COCC1(C)C [Compound 286, (4,4-dimethyloxazolidin-3-yl)(5-methyl-3-phenyl-1H-1,2,4-triazol-1-yl)methanone] |  |  |  |  | 112.8 % of control | 104 % of control | 93 % of control |

More lines, now with the values ahead:

| In Vitro FAAH activity, 100 nM (FAAH [1]) | In Vivo BRh 3 mg/kg 8 h, remaining FAAH activity (FAAH [2]) | In Vivo LVh 3 mg/kg 8 h, remaining FAAH activity (FAAH [3]) | In Vitro FAAH activity, 10 uM (FAAH [1]) | In Vitro 100 nM (FAAH activity, % of control) (FAAH [1]) | In Vivo BRh 3 mg·kg 8 h (remaining FAAH activity, % of control) (FAAH [2]) | In Vivo LVh 3 mg·kg 8 h (remaining FAAH activity, % of control) (FAAH [3]) | SMILES |
| --- | --- | --- | --- | --- | --- | --- | --- |
| 90.5 % of control | 102.1 % of control | 52.6 % of control |  |  |  |  | CC(C)N(Cc1ccccc1)C(=O)n1cnc(-c2ccccc2)c1 [Compound 250, N-benzyl-N-isopropyl-4-phenyl-1H-imidazole-1-carboxamide] |
| 65.6 % of control | 60.1 % of control | 12.2 % of control |  |  |  |  | CN(C(=O)n1cnc(-c2cccc(-c3cccc(Cl)c3)c2)c1)C1CCCCC1 [Compound 257, 4-(3′-chlorobiphenyl-3-yl)-N-cyclohexyl-N-methyl-1H-imidazole-1-carboxamide] |
| 95.3 % of control | 8.1 % of control | 7.8 % of control | 37.3 % of control |  |  |  | CC1(C)COCN1C(=O)n1cnc(-c2ccc(O)cc2)c1 [Compound 260, (4,4-dimethyloxazolidin-3-yl)(4-(4-hydroxyphenyl)-1H-imidazol-1-yl)methanone] |
| 54.1 % of control | 1.2 % of control | 1.2 % of control | 0 % of control |  |  |  | CN(C(=O)n1cnc(-c2ccc(O)cc2)c1)C1CCCCC1 [Compound 261, N-cyclohexyl-4-(4-hydroxyphenyl)-N-methyl-1H-imidazole-1-carboxamide] |
| 92.1 % of control | 98.1 % of control | 98.8 % of control |  |  |  |  | Cc1c(-c2ccccc2)ncn1C(=O)N1COCC1(C)C [Compound 263, (4,4-dimethyloxazolidin-3-yl)(5-methyl-4-phenyl-1H-imidazol-1-yl)methanone] |
| 84.1 % of control | 79.4 % of control | 83.7 % of control |  |  |  |  | CCC1CN(C(=O)n2cnc(-c3ccc(Cl)cc3)c2)C(C)(C)O1 (stereo not drawn) [Compound 267, (4-(4-chlorophenyl)-1H-imidazol-1-yl)(5-ethyl-2,2-dimethyloxazolidin-3-yl)methanone] |
| 63.6 % of control | 19 % of control | 7.1 % of control |  |  |  |  | CN(C(=O)n1cnc(-c2ccc(F)c(F)c2)c1)C1CCCCC1 [Compound 272, N-cyclohexyl-4-(3,4-difluorophenyl)-N-methyl-1H-imidazole-1-carboxamide] |
|  |  |  |  | 65.1 % of control | 3.4 % of control | 2.6 % of control | CN(C(=O)n1cnc(-c2ccc(F)cc2)c1)C1CCCCC1 [Compound 273, N-cyclohexyl-4-(4-fluorophenyl)-N-methyl-1H-imidazole-1-carboxamide] |
|  |  |  |  | 43.8 % of control | 12.8 % of control | 2.4 % of control | CN(C(=O)n1cnc(-c2cccc([N+](=O)[O-])c2)c1)C1CCCCC1 [Compound 275, N-cyclohexyl-N-methyl-4-(3-nitrophenyl)-1H-imidazole-1-carboxamide] |
|  |  |  |  | 71.5 % of control | 1.4 % of control | 2 % of control | CN(C(=O)n1cnc(-c2ccc(OC(F)F)cc2)c1)C1CCCCC1 [Compound 276, N-cyclohexyl-4-(4-(difluoromethoxy)phenyl)-N-methyl-1H-imidazole-1-carboxamide] |
|  |  |  |  | 103.5 % of control | 1.6 % of control | 1.8 % of control | CN(C(=O)n1cnc(-c2ccccc2)c1)C1CCOCC1 [Compound 278, N-methyl-4-phenyl-N-(tetrahydro-2H-pyran-4-yl)-1H-imidazole-1-carboxamide] |
